Numbering of substitutions follows the chain as printed.
Legend:
Test in all cases: Fluo-4 calcium assay, HEK293T + Galpha16gust44
Format in all cases: cell-based
hTAS2R16 (ssr3-hTAS2R16) [1] = molecular target: T1, hTAS2R16 (ssr3-hTAS2R16) (Homo sapiens, UniProt Q9NYV7, I243A)
T1 sequence (Q9NYV7 1-291 I243A): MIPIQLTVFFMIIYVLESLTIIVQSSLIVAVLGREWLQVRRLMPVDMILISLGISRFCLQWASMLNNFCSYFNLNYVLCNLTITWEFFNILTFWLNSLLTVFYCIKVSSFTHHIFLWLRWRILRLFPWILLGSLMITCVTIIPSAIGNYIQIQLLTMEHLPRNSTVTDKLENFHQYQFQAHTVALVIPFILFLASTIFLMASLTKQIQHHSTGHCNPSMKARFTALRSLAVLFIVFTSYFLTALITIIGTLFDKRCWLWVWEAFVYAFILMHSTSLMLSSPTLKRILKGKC

hTAS2R16 (ssr3-hTAS2R16) [2] = molecular target: T2, hTAS2R16 (ssr3-hTAS2R16) (Homo sapiens, UniProt Q9NYV7, Q177A)
T2 sequence (Q9NYV7 1-291 Q177A): T1 sequence (Q9NYV7 1-291 I243A) with Q177A, A243I

hTAS2R16 (ssr3-hTAS2R16) [3] = molecular target: T3, hTAS2R16 (ssr3-hTAS2R16) (Homo sapiens, UniProt Q9NYV7, Q177N)
T3 sequence (Q9NYV7 1-291 Q177N): T1 sequence (Q9NYV7 1-291 I243A) with Q177N, A243I

hTAS2R16 (ssr3-hTAS2R16) [4] = molecular target: T4, hTAS2R16 (ssr3-hTAS2R16) (Homo sapiens, UniProt Q9NYV7, H181L)
T4 sequence (Q9NYV7 1-291 H181L): T1 sequence (Q9NYV7 1-291 I243A) with H181L, A243I

hTAS2R16 (ssr3-hTAS2R16) [5] = molecular target: T5, hTAS2R16 (ssr3-hTAS2R16) (Homo sapiens, UniProt Q9NYV7, E86Q)
T5 sequence (Q9NYV7 1-291 E86Q): T1 sequence (Q9NYV7 1-291 I243A) with E86Q, A243I

hTAS2R16 (ssr3-hTAS2R16) [6] = molecular target: T6, hTAS2R16 (ssr3-hTAS2R16) (Homo sapiens, UniProt Q9NYV7, F93Y)
T6 sequence (Q9NYV7 1-291 F93Y): T1 sequence (Q9NYV7 1-291 I243A) with F93Y, A243I

hTAS2R16 (ssr3-hTAS2R16) [7] = molecular target: T7, hTAS2R16 (ssr3-hTAS2R16) (Homo sapiens, UniProt Q9NYV7, F93T)
T7 sequence (Q9NYV7 1-291 F93T): T1 sequence (Q9NYV7 1-291 I243A) with F93T, A243I

hTAS2R16 (ssr3-hTAS2R16) [8] = molecular target: T8, hTAS2R16 (ssr3-hTAS2R16) (Homo sapiens, UniProt Q9NYV7, W94F)
T8 sequence (Q9NYV7 1-291 W94F): T1 sequence (Q9NYV7 1-291 I243A) with W94F, A243I

- EC50 (hTAS2R16 (ssr3-hTAS2R16) [1]): > 30 mM
- EC50 (hTAS2R16 (ssr3-hTAS2R16) [2]): 0.55 mM
- EC50 (hTAS2R16 (ssr3-hTAS2R16) [3]): 0.39 mM
- EC50 (hTAS2R16 (ssr3-hTAS2R16) [4]): 12.9 mM
- EC50 (hTAS2R16 (ssr3-hTAS2R16) [5]): 1.25 mM
- EC50 (hTAS2R16 (ssr3-hTAS2R16) [6]): 10 mM
- EC50 (hTAS2R16 (ssr3-hTAS2R16) [7]): 12 mM
- EC50 (hTAS2R16 (ssr3-hTAS2R16) [8]): 9.68 mM
SMILES: OCc1ccccc1O[C@@H]1O[C@H](CO)[C@@H](O)[C@H](O)[C@H]1O [salicin]

— article PMC2934701 (The Journal of Biological Chemistry, 2010)
